Tests used:
[1] = target: T1, BhaA (balhimycin halogenase) (Amycolatopsis balhimycina, UniProt O87676); assay: purified as FAD-bound form; assay type: binding; settings: FAD co-purified with the enzyme
T1 construct: overproduced in Pseudomonas fluorescens BL915 deltaORF1-4 from shuttle vector pCIBhis (His tag)

[2] = target: T2, Tcp21 (halogenase from the teicoplanin system) (Actinoplanes teichomyceticus, UniProt Q70AY7); assay: purified as FAD-bound form; assay type: binding; settings: FAD co-purified with the enzyme
T2 construct: synthetic codon-optimised gene, selected range 16-506, pET-28(a) via NdeI/HindIII, His-tagged, expressed in E. coli
T2 sequence (Q70AY7 16-506): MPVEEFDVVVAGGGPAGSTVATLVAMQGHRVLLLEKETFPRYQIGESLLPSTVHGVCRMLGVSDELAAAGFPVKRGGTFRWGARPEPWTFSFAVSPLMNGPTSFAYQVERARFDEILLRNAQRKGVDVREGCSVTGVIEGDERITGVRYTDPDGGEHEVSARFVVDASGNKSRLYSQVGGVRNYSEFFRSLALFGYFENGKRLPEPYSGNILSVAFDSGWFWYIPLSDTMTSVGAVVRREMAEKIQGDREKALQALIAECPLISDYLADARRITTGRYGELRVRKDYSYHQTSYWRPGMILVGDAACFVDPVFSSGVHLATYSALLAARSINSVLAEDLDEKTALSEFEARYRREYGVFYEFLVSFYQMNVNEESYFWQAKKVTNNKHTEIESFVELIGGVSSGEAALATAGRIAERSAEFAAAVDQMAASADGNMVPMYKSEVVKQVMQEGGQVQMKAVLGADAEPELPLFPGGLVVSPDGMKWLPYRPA

T1 sequence (O87676 entry or part of it): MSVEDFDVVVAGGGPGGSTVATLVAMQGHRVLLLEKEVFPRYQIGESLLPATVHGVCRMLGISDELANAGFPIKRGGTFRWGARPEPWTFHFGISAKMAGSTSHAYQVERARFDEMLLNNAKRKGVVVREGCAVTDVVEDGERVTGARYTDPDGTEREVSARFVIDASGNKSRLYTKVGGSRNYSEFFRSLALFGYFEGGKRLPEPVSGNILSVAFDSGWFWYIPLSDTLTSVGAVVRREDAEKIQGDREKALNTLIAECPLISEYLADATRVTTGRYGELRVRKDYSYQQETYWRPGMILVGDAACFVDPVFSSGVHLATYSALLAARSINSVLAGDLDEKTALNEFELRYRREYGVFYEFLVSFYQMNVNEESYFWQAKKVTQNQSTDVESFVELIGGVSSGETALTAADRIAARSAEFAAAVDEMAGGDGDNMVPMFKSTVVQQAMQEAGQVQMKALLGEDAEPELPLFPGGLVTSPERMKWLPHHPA

## Cc1cc2nc3c(=O)[nH]c(=O)nc-3n(C[C@H](O)[C@H](O)[C@H](O)COP(=O)(O)OP(=O)(O)OC[C@H]3O[C@@H](n4cnc5c(N)ncnc54)[C@H](O)[C@@H]3O)c2cc1C [FAD]
[1]
  purified as FAD-bound form: Both enzymes could be overproduced and purified in an FAD-bound form as anticipated
[2]
  purified as FAD-bound form: Both enzymes could be overproduced and purified in an FAD-bound form as anticipated

— publication PMC5620994, “Halogenation of glycopeptide antibiotics occurs at the amino acid level during non-ribosomal peptide synthesis” (Chemical Science, 2017)
